Measurements reported in patent publication US20210255184A1, “Biosensor Device and Methods” (The New Zealand Institute for Plant and Food Research …, priority 2018, published 2021).
Read-outs that look alike come from different tables or passages of the source.

Experiments:
DmOr22a/Orco = biological target: T1, DmOr22a/Orco (Drosophila melanogaster, UniProt P81909); conditions: * estimated visually from graph, cited from earlier work
T1 sequence (P81909 1-397): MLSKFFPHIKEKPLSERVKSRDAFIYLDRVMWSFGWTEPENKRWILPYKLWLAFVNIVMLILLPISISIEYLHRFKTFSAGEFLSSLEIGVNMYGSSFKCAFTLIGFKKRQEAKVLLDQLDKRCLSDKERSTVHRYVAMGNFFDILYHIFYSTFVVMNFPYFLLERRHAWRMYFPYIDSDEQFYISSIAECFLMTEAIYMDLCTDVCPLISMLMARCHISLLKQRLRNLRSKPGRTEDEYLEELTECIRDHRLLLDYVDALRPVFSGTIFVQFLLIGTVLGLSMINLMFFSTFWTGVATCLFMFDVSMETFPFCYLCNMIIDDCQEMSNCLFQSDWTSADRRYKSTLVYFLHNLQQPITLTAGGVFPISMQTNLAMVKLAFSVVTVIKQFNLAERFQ
T1 sequence (Q9VNB5 1-486 partner): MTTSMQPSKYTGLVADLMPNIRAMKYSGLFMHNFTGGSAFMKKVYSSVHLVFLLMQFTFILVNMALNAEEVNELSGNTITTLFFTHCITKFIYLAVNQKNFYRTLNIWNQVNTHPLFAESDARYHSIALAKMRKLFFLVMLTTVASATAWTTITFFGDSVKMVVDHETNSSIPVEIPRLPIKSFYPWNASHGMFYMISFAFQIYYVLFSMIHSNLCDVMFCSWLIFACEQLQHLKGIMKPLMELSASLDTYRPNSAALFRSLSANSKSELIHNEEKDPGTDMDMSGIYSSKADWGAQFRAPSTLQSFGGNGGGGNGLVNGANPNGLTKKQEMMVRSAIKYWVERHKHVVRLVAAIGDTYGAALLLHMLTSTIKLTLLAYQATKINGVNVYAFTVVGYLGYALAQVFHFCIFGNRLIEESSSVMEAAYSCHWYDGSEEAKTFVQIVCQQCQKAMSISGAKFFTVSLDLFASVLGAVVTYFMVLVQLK

Or35a = biological target: T2, Or35a (Drosophila melanogaster, UniProt Q9V3Q2); assay: EIS sensor, Or35a liposomes on gold electrode; type: biochemical; conditions: EIS dose response
T2 construct: his-tag; made in house; host or cells: baculovirus-infected Sf9 cells
T2 sequence (Q9V3Q2 1-409): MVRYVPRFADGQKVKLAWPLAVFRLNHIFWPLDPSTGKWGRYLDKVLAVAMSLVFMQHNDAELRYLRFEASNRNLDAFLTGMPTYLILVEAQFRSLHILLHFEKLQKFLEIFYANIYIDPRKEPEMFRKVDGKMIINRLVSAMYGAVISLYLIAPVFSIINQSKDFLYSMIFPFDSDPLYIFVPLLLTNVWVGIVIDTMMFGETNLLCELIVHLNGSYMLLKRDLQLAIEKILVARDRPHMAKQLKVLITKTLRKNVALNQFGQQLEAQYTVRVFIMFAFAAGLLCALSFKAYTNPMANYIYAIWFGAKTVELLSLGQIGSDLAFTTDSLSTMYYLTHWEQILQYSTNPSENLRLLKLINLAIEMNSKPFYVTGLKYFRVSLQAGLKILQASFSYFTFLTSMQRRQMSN
Method: PBS (pH=7.4) was used as an electrolyte to conduct electrochemical measurements. PBS buffer was degassed for about 30 minutes prior to electrochemical measurements. Odorant solutions of concentration ranging from 1 aM to 1 μM were prepared by sequential dilution in PBS solution containing 1% DMSO. OR immobilized electrodes were incubated in relevant odorant solution for ˜30 minutes each and washed gently with PBS before EIS measurements.
EIS measurements were done in a 3 electrode cell containing Ag/AgCl (3 M NaCl, 0.209 V vs. SHE) reference electrode, coiled platinum wire as a counter electrode and the gold disk as a working electrode at a fixed voltage of −0.7 using PalmSens potentiostat. Degassed PBS was used as an electrolyte.
EIS measurements were performed on gold electrodes functionalised with OrX liposomes (either Or10a or Or22a), OrX/Orco liposomes, or empty liposomes prior to and after target ligand or control ligand incubation with increasing concentrations (1 aM to 100 μM). Dose response curves were obtained by defining sensor response as −(ΔRp/R^op) versus log[C(Ligand)]. FIG. 4a presents the EIS response in terms of Nyquist plot for the Or10a liposome functionalized sensors when exposed to a solution containing one of the known target ligands of Or10a, methyl salicylate, at various concentrations. […] The dose response curve (FIG. 4b) was obtained by plotting the change in polarization resistance −(ΔRp/R^op) versus log[conc(Ligand)], as the sensor response. Here, Rp is the polarization resistance after Or10a liposome-target interaction and R^op is the polarization resistance before Or10a liposome-target interaction.
Prior to use, 1 mg liposomes (500 μl at 2 mg/ml) were defrosted on ice and then destabilized by incubating with 0.2% CHAPS for 15 min at room temperature. […] All Or35a/Orco integrated liposomes samples were analysed by Western blot before being aliquoted and stored at −80° C. Integration of Or35a/Orco into liposomes was assessed by density gradient ultracentrifugation (DGU) using Accudenz (Accurate Chemical & Scientific Corporation, USA). […]

SMILES | Sensitivity limit (given as Log) (DmOr22a/Orco; ref 43) | Sensitivity limit (given as Log) (DmOr22a/Orco; ref 44) | sensor response to control ligand (Or35a)
CCCCCC(=O)OC [methyl hexanoate] | Log = −7.5* | Log = −7* | 
COC(=O)c1ccccc1O [methyl salicylate] |  |  | negligible response
